Laboratory results as given in patent publication US20240279214A1, “ALPHA4 BETA7 INEGRIN ANTAGONISTS AND USES THEREOF” (XinThera, Inc., priority 2022, published 2024).

Target: T1, a4b7 integrin interaction with MadCAM-1 (Homo sapiens, UniProt P13612+P26010)
T1 construct: capture of a4b7 integrin expressing cells, RPMI8866; endogenous in cells; host or cells: RPMI8866
T1 sequence (P13612 34-1032): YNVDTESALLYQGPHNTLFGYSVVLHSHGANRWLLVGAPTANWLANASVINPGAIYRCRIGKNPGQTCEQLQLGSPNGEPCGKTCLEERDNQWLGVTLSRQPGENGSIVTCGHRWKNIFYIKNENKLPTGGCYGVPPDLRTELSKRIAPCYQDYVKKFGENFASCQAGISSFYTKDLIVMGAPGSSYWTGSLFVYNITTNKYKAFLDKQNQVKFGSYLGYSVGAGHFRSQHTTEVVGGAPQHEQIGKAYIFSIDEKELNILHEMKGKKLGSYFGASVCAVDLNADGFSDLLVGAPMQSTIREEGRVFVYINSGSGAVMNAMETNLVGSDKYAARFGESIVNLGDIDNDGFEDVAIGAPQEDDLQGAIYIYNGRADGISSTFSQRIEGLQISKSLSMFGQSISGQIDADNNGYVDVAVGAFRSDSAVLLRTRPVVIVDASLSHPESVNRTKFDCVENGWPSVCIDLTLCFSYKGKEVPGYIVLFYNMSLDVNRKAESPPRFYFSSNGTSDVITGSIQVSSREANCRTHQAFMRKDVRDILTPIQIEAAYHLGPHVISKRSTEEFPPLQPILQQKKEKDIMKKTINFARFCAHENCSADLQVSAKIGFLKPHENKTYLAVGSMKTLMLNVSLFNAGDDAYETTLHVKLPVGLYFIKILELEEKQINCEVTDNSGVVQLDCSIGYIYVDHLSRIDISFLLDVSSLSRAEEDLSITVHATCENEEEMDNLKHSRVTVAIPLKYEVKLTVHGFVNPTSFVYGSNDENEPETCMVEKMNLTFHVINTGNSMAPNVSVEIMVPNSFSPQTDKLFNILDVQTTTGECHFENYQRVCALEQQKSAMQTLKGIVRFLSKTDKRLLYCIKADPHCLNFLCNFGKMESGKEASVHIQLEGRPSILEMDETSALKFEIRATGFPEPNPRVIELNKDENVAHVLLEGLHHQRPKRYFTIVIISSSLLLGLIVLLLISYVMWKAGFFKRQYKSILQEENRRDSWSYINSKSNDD
T1 sequence (P26010 20-798): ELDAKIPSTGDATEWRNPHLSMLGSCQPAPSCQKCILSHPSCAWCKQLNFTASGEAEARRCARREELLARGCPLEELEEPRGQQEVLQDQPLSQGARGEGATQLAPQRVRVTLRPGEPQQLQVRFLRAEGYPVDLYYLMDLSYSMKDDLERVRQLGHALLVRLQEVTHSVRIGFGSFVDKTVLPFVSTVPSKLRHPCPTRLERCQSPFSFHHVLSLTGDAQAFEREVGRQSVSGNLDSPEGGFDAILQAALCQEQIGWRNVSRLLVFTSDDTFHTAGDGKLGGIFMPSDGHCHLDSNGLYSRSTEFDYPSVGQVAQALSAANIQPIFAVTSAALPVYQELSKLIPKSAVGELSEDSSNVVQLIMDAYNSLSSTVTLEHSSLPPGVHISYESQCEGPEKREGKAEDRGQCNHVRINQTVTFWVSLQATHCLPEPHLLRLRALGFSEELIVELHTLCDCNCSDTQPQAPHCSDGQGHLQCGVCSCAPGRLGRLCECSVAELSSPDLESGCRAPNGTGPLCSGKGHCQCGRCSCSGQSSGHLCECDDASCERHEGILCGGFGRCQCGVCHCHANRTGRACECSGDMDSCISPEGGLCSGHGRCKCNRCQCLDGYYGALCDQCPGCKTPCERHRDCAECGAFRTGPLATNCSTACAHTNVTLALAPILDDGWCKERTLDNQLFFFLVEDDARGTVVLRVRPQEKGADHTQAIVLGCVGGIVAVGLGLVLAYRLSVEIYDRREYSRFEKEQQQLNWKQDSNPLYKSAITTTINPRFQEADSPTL
Assay: a4b7 Cell Capture Assay (RPMI8866 cells on MAdCAM-1 Fc coated plates)
Type: cell-based
Details: 50% human serum, 1 mM MgCl2, 1 hour incubation, CellTiter-Glo luminescence, read-out: a4B7 cell capture assay RMPI8866-MadCAM EC50
Experimental: The potency of inhibitors in preventing a4b7 integrin interaction with MadCAM-1 was measured by monitoring the capture of a4b7 integrin expressing cells, RPMI8866, on recombinant human MAdCAM-1 Fc chimera protein-coated plates. The protein was a fusion between human MAdCAM-1 (Met1-Gln333, Accession #AAY82472) and human IgG1 (Pro100-Lys330)] (R&D Systems, Catalog #6056-MC). 96-well plates (Thermofisher, Catalog #136102) were coated with the recombinant protein by dispensing 100 μL (1.0 μg/mL) per well. After a quick spin to settle down the coating solution using a plate centrifuge, plates were incubated overnight at 4° C. in a moisture chamber. On Day 2, the plates were washed with PBS using a Bluecatbio Blue®Washer (GentleSpin wash, 3 cycles, pressure=1, volume 150 uL). Blocking solution (1.0% BSA in PBS, Sigma, Catalog #A7979) was then added at 200 uL/well, and the plates were quickly spun to settle down blocking buffer and incubated in cell culture incubator at 37° C. and 5% CO2 for 1 hour. The plates were then washed with 0.1% BSA in PBS using a Bluecatbio Blue®Washer (GentleSpin wash, 3 cycles, pressure=1, volume 150 uL). RPMI8866 cells suspended in assay medium (1 mM MgCl2 25 mM HEPES and 50% human serum, Sigma, Catalog #H4522) at a density of 1.0×10^6 cells/mL were added at 100 uL/well. Each compound evaluated was prepared as a DMSO stock solution. Test compounds were evaluated with a 9-point serial dilution curve (1000, 333.3, 111.1, 55.6, 27.8, 13.9, 6.9, 2.3, and 0.77 nM)) and were added to the plates using a Tecan D.30e Digita dispenser, the dispensed stock is 100 nL and the final DMSO concentration is 0.1%. Potent compounds were re-evaluated at a new 9-point serial dilution curve (100, 33.3, 11.1, 5.6, 2.8, 1.4, 0.69, 0.23, and 0.08 nM). Each titration curves were performed in triplicate on the same plate, and most of compounds were retested in different dates multiple times. The plates were shaken at 300 rpm on orbital plate shaker for 3 minutes to mix the cells and compounds, quickly spun to settle the cells and solution, and incubated in cell culture incubator at 37° C. and 5% CO2. After 1 hour incubation, the unbound cells were washed away with RPMI1640 medium supplemented with 1 mM MgCl2 and 1% BSA) (wash buffer) using a Bluecatbio Blue®Washer (MagbeadsSpin wash, 1 cycle, pressure 1, volume=150 uL). After wash buffer removal, A mixture of wash buffer/CellTiter-Glo® Reagent (Pormega, catalog #G7573) at 1:1 (V/V) was added at volume of 100 uL to each well. The plates were placed in a chamber at 25° C. and incubated for 30 minutes. Luminescence was recorded using a Envision plate reader 2105 according to CellTiter-Glo protocol.
The mean luminescence signals from negative control wells without MadCAM-1 coating and compound treatment (cells only) was defined as 100% binding inhibition, and the mean luminescence signals from positive control wells with MadCAM-1 coating but without compound treatment (MadCAM-1 and cells only) was defined as 0% binding inhibition. The luminescence signals from other compound treated wells were normalized in percentage scale accordingly. The normalized mean % inhibition data were plotted against logarithmic compound concentration in nanomolar and were fitted with 4-parameter logistic model to obtain IC50 for each compound.

Row | EC50 [µM] | Compound
1 | 0.076 | Cc1cc2cc(c1F)[C@H](CC(=O)O)NC(=O)[C@H](n1cc(CCN3CC(F)C3)c(C(F)(F)F)cc1=O)c1cccc(c1)Cc1cccc(C)c1-2 (relative stereo) [Example 2, [(14R*,17S)-19-fluoro-14-{5-[2-(3-fluoroazetidin-1-yl)ethyl]-2-oxo-4-(trifluoromethyl)pyridin-1-yl}-3,20-dimethyl-15-oxo-16-azatetracyclo[16.3.1.1^{9,13}.0^{2,7}]tricosa-1(22),2(7),3,5,9,11,13(23),18,20-nonaen-17-yl]acetic acid]
2 | 0.44 | Cc1cc(C)c2c(c1)Oc1cccc(c1)[C@H](n1cc(CCN3CC(F)C3)c(C(F)(F)F)cc1=O)C(=O)N[C@@H](CC(=O)O)c1cc-2cc(C(F)(F)F)c1F (relative stereo) [Example 4, [(14R*,17S)-19-fluoro-14-{5-[2-(3-fluoroazetidin-1-yl)ethyl]-2-oxo-4-(trifluoromethyl)pyridin-1-yl}-3,5-dimethyl-15-oxo-20-(trifluoromethyl)-8-oxa-16-azatetracyclo[16.3.1.1^{9,13}.0^{2,7}]tricosa-1(21),2(7),3,5,9,11,13(23),18(22),19-nonaen-17-yl]acetic acid]
3 | 0.33 | Cc1cc(C(F)(F)F)cc2c1-c1cc(c(F)c(C(F)(F)F)c1)[C@H](CC(=O)O)NC(=O)[C@@H](n1cc(CCN3CC(F)C3)c(C(F)(F)F)cc1=O)c1cccc(c1)O2 (relative stereo) [Example 5, [(14R*,17S)-19-fluoro-14-{5-[2-(3-fluoroazetidin-1-yl)ethyl]-2-oxo-4-(trifluoromethyl)pyridin-1-yl}-3-methyl-15-oxo-5,20-bis(trifluoromethyl)-8-oxa-16-azatetracyclo[16.3.1.1^{9,13}.0^{2,7}]tricosa-1(21),2(7),3,5,9,11,13(23),18(22),19-nonaen-17-yl]acetic acid]
4 | 0.23 | Cc1cccc2c1-c1cc(c(F)c(C(F)(F)F)c1)[C@H](CC(=O)O)NC(=O)[C@@H](n1cc(CCN3CC(F)C3)c(C(F)(F)F)cc1=O)c1cccc(c1)O2 (relative stereo) [Example 6, rel-2-((5S,8S)-14-fluoro-5-(5-(2-(3-fluoroazetidin-1-yl)ethyl)-2-oxo-4-(trifluoromethyl)pyridin-1(2H)-yl)-26-methyl-6-oxo-15-(trifluoromethyl)-3-oxa-7-aza-1,4(1,3),2(1,2)-tribenzenacyclooctaphane-8-yl)acetic acid]
5 | 0.072 | Cc1cccc2c1-c1cc(C3CC3)c(F)c(c1)[C@H](CC(=O)O)NC(=O)[C@@H](n1cc(CCN3CC(F)C3)c(C(F)(F)F)cc1=O)c1cccc(c1)O2 (relative stereo) [Example 9, [(14R*,17S)-20-cyclopropyl-19-fluoro-14-{5-[2-(3-fluoroazetidin-1-yl)ethyl]-2-oxo-4-(trifluoromethyl)pyridin-1-yl}-3-methyl-15-oxo-8-oxa-16-azatetracyclo[16.3.1.1^{9,13}.0^{2,7}]tricosa-1(21),2(7),3,5,9,11,13(23),18(22),19-nonaen-17-yl]acetic acid]
6 | 0.97 | Cc1ccc(C)c2c1Oc1cccc(c1)[C@H](n1cc(CCN3CC(F)C3)c(C(F)(F)F)cc1=O)C(=O)N[C@@H](CC(=O)O)c1cc-2cc(C(F)(F)F)c1F (relative stereo) [Example 12, [(14R*,17S)-19-fluoro-14-{5-[2-(3-fluoroazetidin-1-yl)ethyl]-2-oxo-4-(trifluoromethyl)pyridin-1-yl}-3,6-dimethyl-15-oxo-20-(trifluoromethyl)-8-oxa-16-azatetracyclo[16.3.1.1^{9,13}.0^{2,7}]tricosa-1(22),2(7),3,5,9,11,13(23),18,20-nonaen-17-yl]acetic acid]
7 | > 1 | O=C(O)C[C@@H]1NC(=O)[C@@H](n2cc(CCN3CC(F)C3)c(C(F)(F)F)cc2=O)c2cccc(c2)Oc2cccc(C(F)(F)F)c2-c2cc1c(F)c(C(F)(F)F)c2 (relative stereo) [Example 13, [(14R*,17S)-19-fluoro-14-{5-[2-(3-fluoroazetidin-1-yl)ethyl]-2-oxo-4-(trifluoromethyl)pyridin-1-yl}-15-oxo-3,20-bis(trifluoromethyl)-8-oxa-16-azatetracyclo[16.3.1.1^{9,13}.0^{2,7}]tricosa-1(22),2(7),3,5,9,11,13(23),18,20-nonaen-17-yl]acetic acid]
8 | 0.038 | Cc1cccc2c1-c1cc(c(F)c(C(F)(F)F)c1)[C@H](CC(=O)O)NC(=O)[C@@H](n1cc(CCN3CC(F)C3)c(C(F)(F)F)cc1=O)c1cc(cc(C(F)(F)F)c1)O2 (relative stereo) [Example 14, [(14R*,17S)-19-fluoro-14-{5-[2-(3-fluoroazetidin-1-yl)ethyl]-2-oxo-4-(trifluoromethyl)pyridin-1-yl}-3-methyl-15-oxo-11,20-bis(trifluoromethyl)-8-oxa-16-azatetracyclo[16.3.1.1^{9,13}.0^{2,7}]tricosa-1(22),2(7),3,5,9,11,13(23),18,20-nonaen-17-yl]acetic acid]
